# Test results published in patent US20250339426A1, “GCN2 MODULATOR FOR TREATING CANCER” (HIBERCELL, INC., priority 2022, published 2025).
# What was measured:
# [1] = system: KG-1 (human AML cancer cells); assay: In vivo tumor growth inhibition, KG-1 xenograft; design: species or system NOD SCID mice; conditions: 1 and 3 mg/kg twice daily oral
# Experimental: KG-1 (human AML cancer cells): Female 6-8 weeks old NOD SCID mice were inoculated subcutaneously on the right flank with KG1 tumor cells (5×10^6) in RPMI 1640 without serum for tumor development. The treatments were started when the mean tumor size reached approximately 194 mm^3 at Day 20 after cell inoculation and continued until end of study by twice daily oral gavage dosing of HC-7366 at listed doses (vehicle, 0.3 mg/kg HC-7366, 1 mg/kg HC-7366, 3 mg/kg HC-7366, 10 mg/kg HC-7366, or 30 mg/kg HC-7366, FIG. 17).
# [formula] • 2.2.2 Tumor Measurements: The measurement of tumor size was conducted three times weekly with a caliper and recorded. The tumor volume (mm^3) was estimated using the formula: TV=a×b^2/2, where “a” and “b” is long and short diameters of a tumor, respectively. Tumor volume was calculated using the formula [tumor volume (mm^3)=π/6×length×width^2).
# Regression was calculated using the formula=100×ΔT/T initial, if ΔT<0. Animals with 0 mm^3 tumor volume (no measurable tumor) for three consecutive measurements were considered as complete responders and animals with 50% tumor regressions were partial responders.
# [2] = system: oxidative phosphorylation pathway in FaDu tumors; assay: Non-targeted proteomic analysis of FaDu tumors; format: in vivo, mice
# Experimental: (§1) FaDu tumor bearing mice were treated with vehicle or HC-7366 (1, 3, or 30 mg/kg) twice a day orally for three days, and on the morning of Day 4 an AM dose was administered and tumors and plasma were collected 1 hr after dose. Tumor and plasma samples were extracted and split into equal parts for analysis on LC/MS/MS and Polar LC platforms. Proprietary software was used to match ions to an in-house library of standards for metabolite identification and for metabolite quantitation by peak area integration (Metabolon). Proteomic analysis on tumors was performed at MS Bioworks. The equivalent of 3 μg of peptide from each pooled fraction was analyzed by nano LC-MS/MS with a Waters M-Class HPLC system interfaced to a ThermoFisher Fusion Lumos mass spectrometer. Histograms show metabolite levels of treatment groups normalized to vehicle control (FIGS. 115-122).
# FaDu tumor bearing mice were treated with HC-7366 at 3 and 30 mg/kg twice a day for four days. Tumors were harvested for non-targeted proteomic analysis.
# FaDu tumors and plasma = assay: Metabolomic analysis of tumor and plasma, FaDu tumor bearing mice; format: in vivo
# Experimental: as §1
# MOLM-16 xenograft tumors = assay: Metabolomic analysis of MOLM-16 xenograft tumors; format: in vivo, mice; conditions: four days
# Experimental: MOLM-16 xenograft tumors were treated with Vehicle or HC-7366 (0.3, 1, 3, 10 or 30 mg/kg) for four days, and snap frozen tumors were collected for metabolomic analysis (n=12). Metabolic analysis was performed at Metabolon on the LC/MS/MS and Polar LC platforms. Data was normalized to Vehicle group and Welch's two-sample t-test was performed for statistical analysis. Heat maps show metabolite levels normalized to vehicle control (FIGS. 90, 94, 102, and 107).
# HIF1α = assay: IHC of patient tumor biopsies, Phase 1a/b study; format: in vivo, human; conditions: colorectal and head and neck cancer patients, 10 mg and 20 mg QD, cycle 3 vs screening
# Experimental: A first-in-human, multicenter, open-label, Phase 1a/b dose-escalation and dose-expansion study to establish the maximum tolerated dose (MTD), recommended phase II dose (RP2D), and evaluate the safety and tolerability of once daily (QD) oral dosing of HC-7366 potassium salt monohydrate in a dose-escalating fashion in subjects with advanced solid tumors was conducted. Up to 36 subjects were enrolled into the Phase 1a dose-escalation part of the study. Approximately 50% of all subjects enrolled in this study were subjects with squamous cell carcinoma of the head and neck (SCCHN), colorectal cancer (CRC), non-small cell lung cancer (NSCLC), and transitional cell carcinoma of the bladder (TCC). […] The study was conducted in the United States at approximately 3 to 5 sites. This Phase 1a/b study followed a traditional 3+3 design. The starting dose level was 10 mg QD, escalating to 20, 40, 75, 125, and 150 mg QD as safety allowed. All doses were administered in the fasting state with water at least 1 hour before food or at least 2 hours after food. […]
# Tumor biopsies collected from colorectal cancer and head and neck cancer study patients at the time of screening and at cycle 3 were analyzed for HIF1α expression by IHC. […]
smiles,measurement,setting,value
"CNC(=O)c1ncn2cc(-c3c(F)ccc(NS(=O)(=O)c4cc(Cl)cnc4OC)c3F)ncc12 [HC-7366, 6-(3-((5-chloro-2-methoxypyridine)-3-sulfonamido)-2,6-difluorophenyl)-N-methylimidazo[1,5-a]pyrazine-1-carboxamide]",effect on tumor growth,[1],tumor stasis
same,"oxidative phosphorylation pathway, pathway analysis (IPA)","[2]; 3 mg/kg twice a day, four days",strong repression
same,protein subunits of the electron transport chain,"[2]; 3 mg/kg, relative to vehicle",decreased
same,urea levels,FaDu tumors and plasma; plasma,significantly increased
same,oxidized glutathione levels,FaDu tumors and plasma; tumor,significantly reduced
same,reduced glutathione levels,FaDu tumors and plasma; tumor,did not alter
same,gamma glutamyl amino acid levels,FaDu tumors and plasma; tumor and plasma,significantly increased
same,levels of several amino acids,"FaDu tumors and plasma; tumor and plasma, 1, 3, or 30 mg/kg twice a day, Day 4",significantly elevated
same,"levels of arginine, arginosuccinate and citrulline",FaDu tumors and plasma; tumors,significantly increased
same,pyrimidine synthesis metabolites,FaDu tumors and plasma; tumors,significantly reduced
same,aspartate and cysteine levels,MOLM-16 xenograft tumors; 0.3-30 mg/kg,decreased
same,glutathione levels (GSH and GSSG),MOLM-16 xenograft tumors; 0.3-30 mg/kg,significantly reduced
same,levels of most amino acids,MOLM-16 xenograft tumors; 0.3-30 mg/kg,significantly elevated
same,metabolites involved in pyrimidine synthesis,MOLM-16 xenograft tumors; 0.3-30 mg/kg,significantly reduced
same,γ-glutamyl-amino acids,MOLM-16 xenograft tumors; 0.3-30 mg/kg,enhanced
same,"aspartate metabolism and polyamine-related metabolites (putrescine, spermine, MTA)",MOLM-16 xenograft tumors; all doses,significantly reduced
same,HIF1α expression in tumor biopsies,HIF1α,Profound inhibition
